Test results taken from US6333338A, “Bispiperidines as antithrombotic agents” (Laboratoire L. Lafon, priority 1998, dated 2001).
Where a name gives a salt, the structure may show the parent alone. Read-outs that look alike come from different tables or passages of the source.

Key:
guinea pig platelets [1] = assay: In vitro inhibition of collagen-induced platelet aggregation, guinea pig platelets (PRP); format: cell-based, guinea pig (male Dunkin-Hartley); conditions: collagen 1 μg/ml, 3 minutes of contact at 37° C.
Method: (§1) A study of the inhibitory activity of the compounds of formula I on platelet aggregation was carried out in vitro, i.e. by direct contact of solutions of variable concentrations of the compounds with platelets freshly separated from a sample of total blood, taken under standardized conditions, from laboratory animals (guinea pigs) and from healthy human subjects who have not received any substances or drugs that might interfere with blood clotting. The anti-platelet-aggregating activity was also studied ex vivo/vitro, i.e. after administration of the substances claimed to guinea pigs to measure the intensity and duration of the anti-aggregating action induced by the fraction of the test product absorbed and circulating in the blood.
Blood is taken by intracardiac puncture from male Dunkin-Hartley guinea pigs (weighing about 330 g), at a rate of 4.5 ml per 0.5 ml of trisodium citrate (concentration of the aqueous solution: 1.55%) in order to prevent all trace of clotting. The platelet-rich plasma (PRP) is obtained by centrifuging the tubes of total blood for 15 minutes at 150 g.
The PRPs are collected as "pools". The platelets contained in these pools are counted using a Coulter ZM haematology automatic device: if necessary, a dilution is carried out in order for the platelet concentration in the plasma to be between 200,000 and 400,000 platelets/mm^3. Simultaneously, other samples of these pools serve to prepare the platelet-poor plasma (PPP) by centrifugation at 1500 g for 15 minutes.
The kinetic study of the platelet aggregation is carried out by adding a collagen solution (1 μg/ml) to a volume of PRP, using a Chrono-log Corporation aggregometer (490-D1 or 560 VS) which uses an optical detection of the appearance of the thrombus.
The measurements of the aggregation inhibition are carried out after 3 minutes of contact at 37° C. with agitation.

guinea pig platelets [2] = assay: Ex vivo/vitro inhibition of platelet aggregation after administration via the gastric route in guinea pigs; parameters: species or system guinea pig (Dunkin-Hartley); conditions: fasted guinea pigs; for inhibition at 150 mg/kg / inhibition at 10 mg/kg: Cavia porcellus, Platelet
Method: as §1, with “blood. Evaluation of the anti-platelet-aggregating activity of the compounds is carried out in the same guinea pigs as those mentioned above (Dunkin-Hartley strain). […] The allocation of the treatments to the animals is random. The blood is taken and then treated under the same conditions as those described above for the in vitro studies. The results of the inhibition of the platelet aggregation obtained for each test concentration make it possible to calculate the IC50 concentration of each test product and the kinetics of the inhibitory effect and its duration of action.” for “blood.”

[3] = Cavia porcellus, Platelet, 0.05 h
[4] = 1 h before blood sampling, read-out: % of g.r. inhibition guinea pig ex vivo, d = 150 mg/kg, 1 h
[5] = 2 h before blood sampling, read-out: % of g.r. inhibition guinea pig ex vivo, d = 150 mg/kg, 2 h
[6] = 10 mg/kg, 1 h before blood sampling, read-out: % of g.r. inhibition guinea pig ex vivo, d = 10 mg/kg, 1 h
[7] = 10 mg/kg, 2 h before blood sampling, read-out: % of g.r. inhibition guinea pig ex vivo, d = 10 mg/kg, 2 h

| Compound | IC50 (guinea pig platelets [1]; [3]) | inhibition at 150 mg/kg (guinea pig platelets [2]; [4]) | inhibition at 150 mg/kg (guinea pig platelets [2]; [5]) | inhibition at 10 mg/kg (guinea pig platelets [2]; [6]) | inhibition at 10 mg/kg (guinea pig platelets [2]; [7]) | IC50 (guinea pig platelets [1]) | % of g.r. inhibition guinea pig ex vivo, d = 10 mg/kg, 1 h (guinea pig platelets [2]; 10 mg/kg, 1 h before blood sampling) | % of g.r. inhibition guinea pig ex vivo, d = 10 mg/kg, 2 h (guinea pig platelets [2]; 10 mg/kg, 2 h before blood sampling) |
| --- | --- | --- | --- | --- | --- | --- | --- | --- |
| COc1ccc(C(CC(=O)O)NC(=O)CNC(=O)C(CCC2CCNCC2)CCC2CCNCC2)cc1 (stereo not drawn) [Example 7, 3-(4-Methoxyphenyl)-3-{[2-({4-(4-piperidyl)-2-[2-(4-piperidyl)ethyl]butanoyl}amino)acetyl]amino}propanoic Acid Dihydrochloride] | 10 µM | -39% | 0% |  |  |  |  |  |
| O=C(O)COc1cccc(C(CC(=O)O)NC(=O)CNC(=O)C(CCC2CCNCC2)CCC2CCNCC2)c1 (stereo not drawn) [Example 9, 3-[(3-Carboxymethoxy)phenyl]-3-{[2-({4-(4-piperidyl)-2-[2-(4-piperidyl)ethyl]butanoyl}amino)acetyl]amino}-propanoic Acid Dihydrochloride] | 5 µM | -53% | -5% |  |  |  |  |  |
| O=C(CNC(=O)C(CCC1CCNCC1)CCC1CCNCC1)NCC(NC(=O)c1ccc2c(c1)OCO2)C(=O)O (stereo not drawn) [Example 25, 2-[(1,3-Benzodioxol-5-ylcarbonyl)amino]-3-{[2-({4-(4-piperidyl)-2-[2-(4-piperidyl)ethyl]butanoyl}amino)acetyl]amino}propanoic Acid Dihydrochloride] | 29 µM | -33% | -48% |  |  |  |  |  |
| CS(=O)(=O)c1ccc(S(=O)(=O)NC(CNC(=O)CNC(=O)C(CCC2CCNCC2)CCC2CCNCC2)C(=O)O)cc1 (stereo not drawn) [Example 32, 2-({[4-(Methylsulphonyl)phenyl]sulphonyl}amino)-3-{[2-({4-(4-piperidyl)-2-[2-(4-piperidyl)ethyl]butanoyl}amino)acetyl]amino}propanoic Acid Dihydrochloride] | 12 µM |  |  | -8% | -8% |  |  |  |
| Cc1ccc(S(=O)(=O)NC(CNC(=O)CNC(=O)C(CCC2CCNCC2)CCC2CCNCC2)C(=O)O)cc1 (stereo not drawn) [Example 39, 2-{[(4-Methylphenyl)sulphonyl]amino}-3-{[2-({4-(4-piperidyl)-2-[2-(4-piperidyl)ethyl]butanoyl}amino)acetyl]amino}propanoic Acid Dihydrochloride] | 0.25 µM |  |  | -32% | -10% |  |  |  |
| Cc1cccc(S(=O)(=O)NC(CNC(=O)CNC(=O)C(CCC2CCNCC2)CCC2CCNCC2)C(=O)O)c1 (stereo not drawn) [Example 40, 2-{[(3-Methylphenyl)sulphonyl]amino}-3-{[2-({4-(4-piperidyl)-2-[2-(4-piperidyl)ethyl]butanoyl}amino)acetyl]amino}propanoic Acid Dihydrochloride] | 0.4 µM |  |  | -32% | -10% |  |  |  |
| O=C(CNC(=O)C(CCC1CCNCC1)CCC1CCNCC1)NCC(NS(=O)(=O)Cc1ccccc1)C(=O)O (stereo not drawn) [Example 41, 2-[(Benzylsulphonyl)amino]-3-{[2-({4-(4-piperidyl)-2-[2-(4-piperidyl)ethyl]butanoyl}amino)acetyl]amino}propanoic Acid Dihydrochloride] | 8.6 µM |  |  | 13% | 1% |  |  |  |
| O=C(CNC(=O)C(CCC1CCNCC1)CCC1CCNCC1)NCC(NS(=O)(=O)/C=C/c1ccccc1)C(=O)O (stereo not drawn) [Example 42, 2-({[(E)-2-Phenylethenyl]sulphonyl}amino)-3-{[2-({4-(4-piperidyl)-2-[2-(4-piperidyl)ethyl]butanoyl}amino)acetyl]amino}propanoic Acid Dihydrochloride] | 0.42 µM |  |  | -14% | -26% |  |  |  |
| Cl.Cl.O=C(CNC(=O)C(CCC1CCNCC1)CCC1CCNCC1)NCC(NS(=O)(=O)CCc1ccccc1)C(=O)O (stereo not drawn) [Example 43, 2-[(2-Phenethylsulphonyl)amino]-3-{[2-({4-(4-piperidyl)-2-[2-(4-piperidyl)ethyl]butanoyl}amino)acetyl]amino}propanoic Acid Dihydrochloride] |  |  |  |  |  | 1.2 µM | -15% | -4% |
| O=C(CNC(=O)C(CCC1CCNCC1)CCC1CCNCC1)NCC(NS(=O)(=O)c1cccc(C(F)(F)F)c1)C(=O)O (stereo not drawn) [Example 44, 2-({[3-(Trifluoromethyl)phenyl]sulphonyl}amino)-3-{[2-({4-(4-piperidyl)-2-[2-(4-piperidyl)ethyl]butanoyl}amino)acetyl]amino}propanoic Acid Dihydrochloride] | 0.51 µM |  |  | -22% | -35% |  |  |  |
| O=C(CNC(=O)C(CCC1CCNCC1)CCC1CCNCC1)NCC(NS(=O)(=O)c1cccc([N+](=O)[O-])c1)C(=O)O (stereo not drawn) [Example 45, 2-{[(3-Nitrophenyl)sulphonyl]amino}-3-{[2-({4-(4-piperidyl)-2-[2-(4-piperidyl)ethyl]butanoyl}amino)acetyl]amino}propanoic Acid Dihydrochloride] | 0.5 µM |  |  | -36% | -51% |  |  |  |
| COc1ccc(S(=O)(=O)NC(CNC(=O)CNC(=O)C(CCC2CCNCC2)CCC2CCNCC2)C(=O)O)cc1 (stereo not drawn) [Example 46, 2-{[(4-Methoxyphenyl)sulphonyl]amino}-3-{[2-({4-(4-piperidyl)-2-[2-(4-piperidyl)ethyl]butanoyl}amino)acetyl]amino}propanoic Acid Dihydrochloride] | 0.38 µM |  |  | -18% | -31% |  |  |  |
| O=C(CNC(=O)C(CCC1CCNCC1)CCC1CCNCC1)NCC(NS(=O)(=O)c1cccc2cccnc12)C(=O)O (stereo not drawn) [Example 47, 2-[(8-Quinolinylsulphonyl)amino]-3-{[2-({4-(4-piperidyl)-2-[2-(4-piperidyl)ethyl]butanoyl}amino)acetyl]amino}propanoic Acid Trihydrochloride] | 1.9 µM |  |  | -4% | -17% |  |  |  |
| Cc1noc(C)c1S(=O)(=O)NC(CNC(=O)CNC(=O)C(CCC1CCNCC1)CCC1CCNCC1)C(=O)O (stereo not drawn) [Example 48, 2-{[(3,5-Dimethyl-4-isoxazolyl)sulphonyl]amino}-3-{[2-({4-(4-piperidyl)-2-[2-(4-piperidyl)ethyl]butanoyl}amino)acetyl]amino}propanoic Acid Dihydrochloride] | 0.42 µM |  |  | -61% | -15% |  |  |  |
| CC(=O)Nc1nc(C)c(S(=O)(=O)NC(CNC(=O)CNC(=O)C(CCC2CCNCC2)CCC2CCNCC2)C(=O)O)s1 (stereo not drawn) [Example 50, 2-({[2-(Acetylamino)-4-methyl-1,3-thiazol-5-yl]sulphonyl}amino)-3-{[2-({4-(4-piperidyl)-2-[2-(4-piperidyl)ethyl]butanoyl}amino)acetyl]amino}propanoic Acid Dihydrochloride] | 3.3 µM |  |  | -22% | -39% |  |  |  |
| O=C(CNC(=O)C(CCC1CCNCC1)CCC1CCNCC1)NC[C@H](NS(=O)(=O)CCCCl)C(=O)O [Example 51, 2-{[(3-Chloropropyl)sulphonyl]amino}-3-{[2-({4-(4-piperidyl)-2-[2-(4-piperidyl)ethyl]butanoyl}amino)acetyl]amino}propanoic Acid Dihydrochloride] | 11 µM |  |  | 4% | -21% |  |  |  |
| Cc1nc(C)c(S(=O)(=O)NC(CNC(=O)CNC(=O)C(CCC2CCNCC2)CCC2CCNCC2)C(=O)O)s1 (stereo not drawn) [Example 54, 2-{[(2,4-Dimethyl-1,3-thiazol-5-yl)sulphonyl]amino}-3-{[2-({4-(4-piperidyl)-2-[2-(4-piperidyl)ethyl]butanoyl}amino)acetyl]amino}propanoic Acid Dihydrochloride] | 1.3 µM |  |  | -40% | -15% |  |  |  |
